Where “and” joins values, the source holds several entries; their conditions need not be identical. Equal entries are not always repeated. Where two headings read alike, the source gives them in different places.
Assays:
human σ1R = molecular target: T1, human σ1R (Homo sapiens, UniProt Q99720); experiment: hσ1R competitive radioligand binding assay; settings: for Selectivity Index of Rat σ2R/Human σ1R: Ki rat σ2R/Ki hσ1R
T1 construct: expressed in transfected cells; host or cells: HEK293 (provided by Olivier Soriani, Université de Nice Sophia-Antipolis)
Method: The hσ1R competitive binding assay was performed as previously reported. In brief, radioligand competition experiments were performed using preparations from HEK293 cells stably transfected with human σ1R cells (provided by Olivier Soriani, Université de Nice Sophia-Antipolis, Nice, France). The binding of the σ1R specific radioligand (+)-[^3H]pentazocine (1.051 TBq/mmol; PerkinElmer LAS GmbH, Rodgay, Germany) was measured at equilibrium in the presence of the test compounds at different concentrations (10 mM stock solutions in DMSO; final concentrations 10^−5–10^−11 M, 0.1 % DMSO) in TRIS buffer at pH 7.4 (50 mM TRIS-HCl, 120 mM NaCl, 5 mM KCl, 2 mM CaCl2, 1 mM MgCl2). Total binding was measured without the addition of a competitor, and non-specific binding was measured with 10 µM haloperidol as the competitor. The vials were incubated at room temperature (rt) (~21 °C) at 300 rpm. The incubation was terminated after 60 min by vacuum filtration using Whatman® GF/B glass-fiber filtermats (#FPD-100, Brandel Inc., Gaithersburg, MD, USA), soaked with freshly prepared 0.3% polyethyleneimine, using a 48-well harvester (Brandel Inc., Gaithersburg, MD, USA). Filters were washed four times with cold buffer (50 mM TRIS-HCl, pH 7.4 at 4 °C) and placed in scintillation vials. In total, 3 mL of a liquid scintillation cocktail (Ultima Gold TM; PerkinElmer, Waltham, MA, USA) was filled in each vial, and the vials were shaken at rt at 375 rpm for 120 min. Filter-bound radioactivity was measured in a Hidex 600 SL liquid scintillation counter (Hidex, Turku, Finnland). By performing nonlinear regression analysis of the binding curves (GraphPad Prism 3.0, GraphPad Software, Inc., La Jolla, CA, USA), the IC50 values were obtained, and the equilibrium inhibition constants Ki were calculated according to the Cheng–Prusoff equation [36], using the in-house determined equilibrium dissociation constant KD of 33 nM (+)-[^3H]pentazocine. Each test compound was measured in 2–3 independent experiments, each performed in triplicate.

rat σ2R = molecular target: T2, rat σ2R (Rattus norvegicus, UniProt Q5U3Y7); experiment: σ2R competitive radioligand binding assay (rat liver membranes)
T2 construct: The thawed membrane preparation of rat liver (about 100 µg of protein) was incubated; from tissue; host or cells: rat liver membranes
T2 sequence (Q5U3Y7 1-176): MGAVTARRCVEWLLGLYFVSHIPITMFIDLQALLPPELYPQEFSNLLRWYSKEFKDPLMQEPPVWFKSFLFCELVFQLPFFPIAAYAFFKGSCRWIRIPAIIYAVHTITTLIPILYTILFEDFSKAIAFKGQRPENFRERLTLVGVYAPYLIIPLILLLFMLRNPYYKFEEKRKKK
Method: Two rat livers were cut into small pieces and homogenized using a potter [Elvehjem Potter (B. Braun Biotech International, Melsungen, Germany); 500–800 rpm, 10 up-and-down strokes] in 6 volumes of cold 0.32 M sucrose. The suspension was centrifuged at 1200× g for 10 min at 4 °C. The supernatant was separated and centrifuged at 31,000× g for 20 min at 4 °C. The pellet was resuspended in 5–6 volumes of buffer (50 mM TRIS, pH 8.0) and incubated at rt for 30 min. After the incubation, the suspension was centrifuged again at 31,000× g for 20 min at 4 °C. The final pellet was resuspended in 5–6 volumes of buffer and stored at −80 °C in 1.5 mL portions containing about 2 mg of protein/mL.
The stock solution of the respective test compound (10 mM in DMSO) was diluted with the assay buffer to obtain the required test solutions for the assay. All binding experiments were carried out in duplicates in 96-well multiplates. The concentrations given are the final concentrations in the assay. The assays were performed with the radioligand [^3H]-DTG (specific activity 50 Ci/mmol; ARC, St. Louis, MO, USA). The thawed membrane preparation of rat liver (about 100 µg of protein) was incubated with various concentrations of the test compound, 3 nM [^3H]-DTG, and a buffer containing (+)-pentazocine (500 nM (+)-pentazocine in 50 mM TRIS, pH 8.0) at rt. The non-specific binding was determined with 10 μM non-labeled DTG. The Kd value of [^3H]-DTG is 17.9 nM [43].
Generally, the assays were performed by adding 50 µL of the respective assay buffer and 50 µL of the test compound solution in various concentrations (10^−5, 10^−6, 10^−7, 10^−8, 10^−9, and 10^−10 mol/L), 50 µL of the corresponding radioligand solution, and 50 µL of the respective receptor preparation into each well of the multiplate (total volume 200 µL). The receptor preparation was added last. During the incubation, the multiplates were shaken at a speed of 500−600 rpm at rt. The assays were terminated after 120 min by rapid filtration using the harvester (MicroBeta FilterMate 96; PerkinElmer LAS, Rodgau, Germany) equipped with filtermats presoaked in 0.5% aqueous polyethylenimine solution for 2 h at rt before use. During the filtration, each well was washed five times with 300 µL of water. Subsequently, the filtermats were dried at 95 °C. The solid scintillator (Meltilex; PerkinElmer LAS, Rodgau, Germany) was melted on the dried filtermats at a temperature of 95 °C for 5 min. After solidifying the scintillator at rt, the trapped radioactivity in the filtermats was measured with the scintillation analyzer (MicroBeta Trilux; PerkinElmer LAS, Rodgau, Germany). Each position on the filtermat corresponds to one well of the multiplate and was measured for 5 min with the [^3H]-counting protocol. The overall counting efficiency was 20%. The IC50 values were calculated with the program GraphPad Prism® 3.0 (GraphPad Software, San Diego, CA, USA) by nonlinear regression analysis. Subsequently, the IC50 values were transformed into Ki values using the equation of Cheng and Prusoff. The Ki values are given as the mean value ± SEM from three independent experiments.

EeAChE = settings: cited from earlier work
eqBuChE = settings: cited from earlier work; for IC50: read-out: IC50 BuChE
human MAO A = settings: cited from earlier work
human MAO B = tested on: human MAO B; set-up: method as in earlier work; settings: cited from earlier work
gpσ1R = gpσ1R (Cavia porcellus, UniProt Q60492); experiment: gpσ1R affinity; type: binding
[1] = membrane preparations of HEK-293 cells stably transfected with hσ1R, radioligand (+)-[3H]pentazocine, two experiments: mean (individual values), three or more: mean ± SD, read-out: Ki Human σ1R
[2] = rat liver membrane preparations, radioligand [3H]ditolylguanidine, (+)-pentazocine to mask σ1R, mean ± SEM, read-out: Ki Rat σ2R

T1 sequence (Q99720 whole entry): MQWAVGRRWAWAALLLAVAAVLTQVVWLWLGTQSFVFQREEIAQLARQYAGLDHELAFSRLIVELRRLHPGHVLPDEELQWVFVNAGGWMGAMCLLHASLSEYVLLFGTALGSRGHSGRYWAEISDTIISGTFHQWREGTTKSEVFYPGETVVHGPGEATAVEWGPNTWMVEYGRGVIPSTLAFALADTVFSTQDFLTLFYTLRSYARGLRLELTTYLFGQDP
Chain of gpσ1R (Q60492 whole entry): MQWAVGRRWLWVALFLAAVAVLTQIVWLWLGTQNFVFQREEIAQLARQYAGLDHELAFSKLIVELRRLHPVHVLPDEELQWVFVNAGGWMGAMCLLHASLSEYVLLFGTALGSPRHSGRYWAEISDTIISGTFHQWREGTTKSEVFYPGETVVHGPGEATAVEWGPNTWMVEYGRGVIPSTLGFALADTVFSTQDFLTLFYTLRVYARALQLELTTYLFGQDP

Row | SMILES | Ki (human σ1R) | Selectivity Index of Rat σ2R/Human σ1R (human σ1R) | Ki (rat σ2R) [nM] | IC50 (EeAChE) [nM] | IC50 BuChE (eqBuChE; eqBuChE) | IC50 MAO A (human MAO A) | IC50 MAO B (human MAO B) | IC50 (eqBuChE; eqBuChE) [nM] | Ki (human σ1R; [1]) | Ki (rat σ2R; [2]) [nM] | fold higher affinity for hσ1R than the standards NE-100 and PB2 (human σ1R; compared with the standards) [fold] | Ki (gpσ1R) [nM] | IC50 (eqBuChE; as given in the text) [nM] | IC50 (human MAO A) [µM] | fold more affine for rat σ2R than for hσ1R (rat σ2R; Ki hσ1R vs Ki rat σ2R) [fold]
1 | C#CCNc1nc(NC2CCN(Cc3ccccc3)CC2)c(C#N)cc1C#N [Compound 1] | 29.2 nM | 5.9 | 173 | 530 ± 70 | n.i. | n.i. | n.i. |  |  |  |  |  |  |  | 
2 | C#CCNc1nc(NCCC2CCN(Cc3ccccc3)CC2)c(C#N)cc1C#N [Compound 2] | 7.57 ± 0.59 nM | 5.6 | 42 ± 8 | 16 ± 2 | n.i. | n.i. | n.i. |  |  |  |  |  |  |  | 
3 | C#CCNc1nc(NCCCC2CCN(Cc3ccccc3)CC2)c(C#N)cc1C#N [Compound 3] | ~3 nM and 2.97 nM | 13 | 37 ± 5 | 4.7 ± 0.5 |  | n.i. | n.i. | 2030 ± 370 |  |  |  |  |  |  | 
4 | C#CCNc1nc(NCCCCC2CCN(Cc3ccccc3)CC2)c(C#N)cc1C#N [Compound 4] |  | 41 |  | 1.3 ± 0.3 |  | n.i. | n.i. | 530 ± 60 | 3.97 ± 0.66 nM | 163 ± 50 |  |  |  |  | 
5 | C#CCN(C)c1nc(NCCC2CCN(Cc3ccccc3)CC2)c(C#N)cc1C#N [Compound 5, 2-{[2-(1-benzylpiperidin-4-yl)ethyl]amino}-6-[methyl(prop-2-yn-1-yl)amino]pyridine-3,5-dicarbonitrile] | 1.45 ± 0.43 nM | 270 | 389 | 13 |  | n.i. | n.i. |  |  |  | ~1.3 | 2.9 | 3100 |  | 
6 | C#CCN(C)c1nc(NCCCC2CCN(Cc3ccccc3)CC2)c(C#N)cc1C#N [Compound 6] | ~3 nM and 3.05 nM | 42 | 129 ± 26 | 6.2 ± 1.4 |  |  | n.i. | 1120 ± 160 |  |  |  |  |  | 6.11 ± 1.4 | 
7 | C#CCN(C)c1nc(NCCCCC2CCN(Cc3ccccc3)CC2)c(C#N)cc1C#N [Compound 7] |  |  |  | 1.1 ± 0.3 |  |  | n.i. | 600 ± 80 | ~3 nM and 3.09 nM | 288 |  |  |  |  | 
8 | C#CCNc1nc(NC2CCN(Cc3ccccc3)CC2)c(C#N)c(-c2ccccc2)c1C#N [Compound 8] | 27.3 nM | 5.2 | 141 | 4000 ± 100 | n.i. |  | n.i. |  |  |  |  |  |  | 0.025 ± 0.001 | 
9 | C#CCNc1nc(NCCCC2CCN(Cc3ccccc3)CC2)c(C#N)c(-c2ccccc2)c1C#N [Compound 9] | 7.45 ± 4.32 nM | 14 | 104 ± 22 | 19 ± 5 | n.i. | n.i. | n.i. |  |  |  |  |  |  |  | 
10 | C#CCNc1nc(NCCCCC2CCN(Cc3ccccc3)CC2)c(C#N)c(-c2ccccc2)c1C#N [Compound 10] |  | 2.5 |  | 1.7 ± 0.3 |  | n.i. | n.i. | 840 ± 100 | 15.4 nM | 39 |  |  |  |  | 
11 | C#CCN(C)c1nc(NCC2CCN(Cc3ccccc3)CC2)c(C#N)c(-c2ccccc2)c1C#N [Compound 11, 2-{[(1-benzylpiperidin-4-yl)methyl]amino}-6-[methyl(prop-2-yn-1-yl)amino]-4-phenylpyridine-3,5-dicarbonitrile] | 119 nM | 0.46 | 55 | 270 ± 52 |  | n.i. | n.i. | 5000 ± 700 |  |  |  |  |  |  | 2
12 | C#CCN(C)c1nc(NCCCC2CCN(Cc3ccccc3)CC2)c(C#N)c(-c2ccccc2)c1C#N [Compound 12] | 10.9 ± 1.9 nM | 36 | 393 | 14 ± 1 |  | n.i. | n.i. | 230 ± 30 |  |  |  |  |  |  | 

— paper PMC11818082, “2-{N-[ω-(1-Benzylpiperidin-4-yl)alkyl]amino}-6-[(prop-2-yn-1-yl)amino]pyridine-3,5-dicarbonitriles Showing High Affinity for σ1/2 Receptors” (International Journal of Molecular Sciences, 2025)
